Data taken from article PMC7362394 (Bioorganic & medicinal chemistry letters, 2019).

Tests used:
[1] = biological target: T1, uPA (Homo sapiens, UniProt P00749); details: read-out: uPA Ki; value taken from earlier paper; cited from earlier work
[2] = biological target: T1, uPA
[3] = system: panel of mammalian cell lines; details: concentrations up to 100 μM
[4] = biological target: T2, epithelial sodium channels (ENaCs) (Homo sapiens, UniProt P37088+P51168+P51170); details: compounds at 10 μM, n = 4
T2 sequence (P37088 1-669): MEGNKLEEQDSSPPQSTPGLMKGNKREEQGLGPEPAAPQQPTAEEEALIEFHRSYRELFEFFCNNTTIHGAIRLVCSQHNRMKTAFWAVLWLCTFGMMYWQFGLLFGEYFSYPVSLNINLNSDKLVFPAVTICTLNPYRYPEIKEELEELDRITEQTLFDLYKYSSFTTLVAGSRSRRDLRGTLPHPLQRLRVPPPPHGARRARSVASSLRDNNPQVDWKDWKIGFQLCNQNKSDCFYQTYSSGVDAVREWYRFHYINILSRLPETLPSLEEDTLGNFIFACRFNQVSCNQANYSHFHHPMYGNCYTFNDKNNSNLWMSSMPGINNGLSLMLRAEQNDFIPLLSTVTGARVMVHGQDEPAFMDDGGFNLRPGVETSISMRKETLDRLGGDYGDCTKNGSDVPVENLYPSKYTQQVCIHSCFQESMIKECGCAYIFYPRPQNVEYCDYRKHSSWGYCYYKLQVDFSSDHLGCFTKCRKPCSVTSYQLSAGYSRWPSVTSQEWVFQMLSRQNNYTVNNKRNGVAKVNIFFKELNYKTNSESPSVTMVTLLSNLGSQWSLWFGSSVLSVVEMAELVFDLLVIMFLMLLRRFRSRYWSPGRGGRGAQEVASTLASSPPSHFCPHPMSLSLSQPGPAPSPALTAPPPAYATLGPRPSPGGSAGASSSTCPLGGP
T2 sequence (P51168 1-640): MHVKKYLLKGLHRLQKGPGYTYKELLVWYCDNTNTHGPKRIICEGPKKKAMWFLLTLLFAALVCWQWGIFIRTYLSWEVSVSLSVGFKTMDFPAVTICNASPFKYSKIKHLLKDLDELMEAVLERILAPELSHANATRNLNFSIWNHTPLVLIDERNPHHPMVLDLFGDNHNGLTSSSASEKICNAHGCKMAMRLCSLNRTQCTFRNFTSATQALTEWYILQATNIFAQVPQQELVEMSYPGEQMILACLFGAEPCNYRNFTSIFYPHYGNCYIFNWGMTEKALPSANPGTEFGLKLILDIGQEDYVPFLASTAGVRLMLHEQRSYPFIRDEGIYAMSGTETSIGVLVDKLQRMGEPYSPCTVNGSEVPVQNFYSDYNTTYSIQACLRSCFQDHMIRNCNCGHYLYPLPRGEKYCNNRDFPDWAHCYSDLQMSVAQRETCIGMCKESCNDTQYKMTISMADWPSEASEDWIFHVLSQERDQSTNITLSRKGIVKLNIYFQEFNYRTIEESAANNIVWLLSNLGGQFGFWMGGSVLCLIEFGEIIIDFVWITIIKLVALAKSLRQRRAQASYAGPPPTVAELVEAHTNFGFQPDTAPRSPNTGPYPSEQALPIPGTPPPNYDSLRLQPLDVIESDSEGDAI
T2 sequence (P51170 1-649): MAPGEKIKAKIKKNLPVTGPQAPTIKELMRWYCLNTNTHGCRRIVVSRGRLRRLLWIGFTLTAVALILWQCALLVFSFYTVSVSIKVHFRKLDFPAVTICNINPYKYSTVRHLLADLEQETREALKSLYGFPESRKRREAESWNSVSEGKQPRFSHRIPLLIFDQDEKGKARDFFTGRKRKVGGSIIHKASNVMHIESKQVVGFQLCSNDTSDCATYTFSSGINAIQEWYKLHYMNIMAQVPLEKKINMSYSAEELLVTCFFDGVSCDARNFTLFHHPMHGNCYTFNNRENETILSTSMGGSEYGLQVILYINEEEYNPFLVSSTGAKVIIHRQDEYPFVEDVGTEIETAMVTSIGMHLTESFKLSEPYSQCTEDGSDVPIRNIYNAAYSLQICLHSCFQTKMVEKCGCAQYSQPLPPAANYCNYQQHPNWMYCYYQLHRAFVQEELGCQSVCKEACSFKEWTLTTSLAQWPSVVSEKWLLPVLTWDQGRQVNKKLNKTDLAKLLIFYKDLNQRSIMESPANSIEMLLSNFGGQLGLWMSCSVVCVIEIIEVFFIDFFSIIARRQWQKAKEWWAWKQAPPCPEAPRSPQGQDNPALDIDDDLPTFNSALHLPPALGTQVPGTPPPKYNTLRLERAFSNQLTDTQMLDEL

[5] = system: Sprague Dawley rats; details: 25 mg/kg acetazolamide IV then 1.5 mg/kg compound IP, n = 8
[6] = system: 85 serine hydrolases; details: 5 nM-33 μM

Row | SMILES | uPA potency relative to amiloride (in words) [2] | fold increase in uPA activity relative to amiloride ([2]; from Ki values) | further results
1 | COc1ncc(-c2nc(C(=O)NC(=N)N)c(N)nc2N2CCCCCC2)c(OC)n1 [6-(2,4-dimethoxypyrimidin-5-yl)-5-(N,N-hexamethylene) amiloride] | – | – | Ki [1]: 42 nM
2 | N=C(N)NC(=O)c1nc(-c2ccccc2)c(N)nc1N [Compound 3] | did not improve potency | – | –
3 | CSc1ccc(-c2nc(C(=O)NC(=N)N)c(N)nc2N)cc1 [Compound 4] | did not improve potency | – | –
4 | N=C(N)NC(=O)c1nc(-c2ccc(C(F)(F)F)cc2)c(N)nc1N [Compound 5] | did not improve potency | – | –
5 | COc1ncc(-c2nc(C(=O)NC(=N)N)c(N)nc2N)cn1 [Compound 7] | – | – | cytotoxicity across the cell line panel (in words) [3]: much less toxic; ENaC activity (in words) [4]: Complete loss of ENaC activity; effect on Na+/K+ excretion / solute concentrations (in words) [5]: no significant effect; effect on diuresis (in words) [5]: no significant effect; inhibition of serine hydrolases in EnPlex assay (in words) [6]: High uPA selectivity
6 | COc1ncc(-c2nc(C(=O)NC(=N)N)c(N)nc2N)c(OC)n1 [Compound 8] | only a modest increase in activity | – | –
7 | COc1ccc(-c2nc(C(=O)NC(=N)N)c(N)nc2N)c(OC)n1 [Compound 9] | – | 2 fold | –
8 | N=C(N)NC(=O)c1nc(-c2cccs2)c(N)nc1N [Compound 10] | – | 2 fold | –
9 | N=C(N)NC(=O)c1nc(-c2ccco2)c(N)nc1N [Compound 11] | – | 3.3 fold | –
10 | N=C(N)NC(=O)c1nc(-c2cc3ccccc3s2)c(N)nc1N [Compound 14] | – | 1.7 fold | –
11 | N=C(N)NC(=O)c1nc(-c2cc3cc(Br)ccc3o2)c(N)nc1N [Compound 19] | – | – | fold decrease in uPA activity relative to amiloride ([2]; from Ki values): 1.5 fold; fold loss of uPA activity relative to 15 ([2]; from Ki values): ~ 12 fold
12 | N=C(N)NC(=O)c1nc(-c2ccc3occc3c2)c(N)nc1N [Compound 23] | – | – | uPA potency relative to 15 (in words) [2]: only a small decrease in potency
13 | N=C(N)NC(=O)c1nc(-c2ccc3c(c2)CCO3)c(N)nc1N [Compound 24] | slight increase | – | –
